Test results taken from patent US7794929B2, “Genomic screen for epigenetically silenced genes associated with cancer” (The Johns Hopkins University School of Medicine, priority 2002, dated 2010).

Experiments:
[1] = tested on: RKO cells; assay: Subtraction microarray and semi-quantitative RT-PCR of gene expression after DAC and/or TSA treatment; format: cell-based, human; details: for expression of Group 2 genes (n=23) / expression of Group 1 genes (n=51): RKO cells, semi-quantitative RT-PCR; for expression of Group 2 genes (n=23): DAC alone or TSA alone; for expression of Group 1 genes (n=51): low dose DAC alone, TSA alone or combined
Description: RKO cells were treated with 5-aza-2′-deoxycytidine (DAC; Sigma) and/or trichostatin A (TSA; Wako) as described (Cameron et al., supra, 1999). Briefly, the treatment consisted of DAC (200 nM) for 48 hr, with drug and medium replaced at the 24 hr time point after beginning of treatment, followed by addition of TSA to a final concentration of 300 nM (from a 1.5 mM ethanol dissolved stock) and incubation for an additional 24 hr. Cells also were treated with DAC alone or TSA alone, or mock treated, using the same volumes of PBS and/or ethanol, and/or same amount of the drugs. Some colorectal cancer (CRC) cell lines also were treated for RT-PCR analysis to assess more robust levels of gene expression; treatment was with 5 μM DAC for 72 hr, with drug and medium being replaced every 24 hr. Total RNA was extracted using the TRIZOL Reagent (Gibco/BRL), and used for microarray analysis, cDNA subtraction and RT-PCR. Prior to cDNA subtraction, poly A RNA was isolated from total RNA using the MESSAGE MAKER Reagent Assembly kit (Gibco/BRL). cDNA subtraction was performed with the combination treated RKO cell line as the tester, and mock treated cells as the driver by using the PCR-Select™ cDNA subtraction kit (Clontech). Synthesized cDNA was digested with Rsa I, and tester cDNA was ligated to adaptors included in the kit. After hybridization, PCR amplification of the subtracted cDNA was performed using the ADVANTAGE cDNA PCR kit (Clontech). Microarray analysis was performed using the Mammalian GeneFilters Microarrays™ system (Research Genetics). Filters were generated for approximately 5,000 of the genes analyzed in the Johns Hopkins Comprehensive microarray core, and filters for an additional 5,000 genes were purchased (Human GeneFilters Microarrays™ Release II; Research Genetics). A total of 10,814 genes and ESTs were analyzed. Hybridization of the filters was performed according to manufacturer's recommendation. Briefly, 5 μg of total RNA was reverse transcribed and labeled using oligo (dT)12-18 primer and ^32dCTP with SUPERSCRIPT II reverse transcriptase (Gibco/BRL). Hybridization of the filters was allowed to proceed for 12 to 18 hr. Data was analyzed using the PSCAN program (National Institutes of Health). For subtraction-microarray analysis, the 2nd PCR product from cDNA subtraction was labeled with ^33P using the MULTIPRIME DNA labeling system (Amersham). Hybridization and data analysis were performed as described above. Microarray analysis was repeated independently at least three times for each condition, and results for probing the arrays with cDNA for total RNA from mock treated cells were compared to those for hybridizations with subtraction PCR products. DNase I (Ambion) treated total RNA (2 μg) was reverse transcribed for single stranded cDNA using oligo (dT)12-18 primer with SUPERSCRIPT II reverse transcriptase (Gibco/BRL). PCR reactions were performed in a volume of 50 μl containing 1×PCR buffer (Gibco/BRL), 1.5 mM of MgCl2, 0.3 mM of dNTP, 0.25 μM of each primer and 2 U of Taq polymerase (Gibco/BRL). One hundred ng of cDNA was used for PCR amplification, and all of the genes were amplified with multiple cycle numbers (20 to 35 cycles) to determine appropriate conditions to obtain semi-quantitative differences in their expression levels. GAPDH PCR (25 and 28 cycles) was performed to ensure cDNA quality and loading accuracy. Amplification primer pairs were as shown in Table 4 (SEQ ID NOS: 149 to 296.

[2] = tested on: CRC cell lines; assay: RT-PCR expression analysis of methylation silenced genes in CRC cell lines after DAC treatment; format: cell-based, human
Description: Briefly, the treatment consisted of DAC (200 nM) for 48 hr, with drug and medium replaced at the 24 hr time point after beginning of treatment, followed by addition of TSA to a final concentration of 300 nM (from a 1.5 mM ethanol dissolved stock) and incubation for an additional 24 hr. Cells also were treated with DAC alone or TSA alone, or mock treated, using the same volumes of PBS and/or ethanol, and/or same amount of the drugs. Some colorectal cancer (CRC) cell lines also were treated for RT-PCR analysis to assess more robust levels of gene expression; treatment was with 5 μM DAC for 72 hr, with drug and medium being replaced every 24 hr. Total RNA was extracted using the TRIZOL Reagent (Gibco/BRL), and used for microarray analysis, cDNA subtraction and RT-PCR. DNase I (Ambion) treated total RNA (2 μg) was reverse transcribed for single stranded cDNA using oligo (dT)12-18 primer with [sequence] II reverse transcriptase (Gibco/BRL). PCR reactions were performed in a volume of 50 μl containing 1×PCR buffer (Gibco/BRL), 1.5 mM of MgCl2, 0.3 mM of dNTP, 0.25 μM of each primer and 2 U of Taq polymerase (Gibco/BRL). One hundred ng of cDNA was used for PCR amplification, and all of the genes were amplified with multiple cycle numbers (20 to 35 cycles) to determine appropriate conditions to obtain semi-quantitative differences in their expression levels. GAPDH PCR (25 and 28 cycles) was performed to ensure cDNA quality and loading accuracy. […] For RT-PCR, SFRP2 sense and antisense primers were designed for exons 2 and 3, respectively; SFRP4 sense and antisense primers were designed for exons 2 and 5, respectively; and SFRP5 sense and antisense primers were designed for exons 2 and 3, respectively.

[3] = colorectal cancer cells and/or gastric cancer cells

| SMILES | expression of Group 2 genes (n=23) [1] | expression of Group 1 genes (n=51) [1] | basal level of expression of HOXA1, GRO3 and DLX7 [1, 3] | expression of POR1, MBNL, TRADD, PDIP, RAD23B, RPL13, GNAI2, PPP1R21A, FPGT and TRIM32 [1, 3] | expression of PTGS2, CDKN2A, TIMP3, S100A10, SFRP1, CXX1, SEZZ6L, KIAA0786, TIMP2, PCDH8, FOLH1 and SNRPN (no detectable basal expression) [1, 3] | expression of FOLH1 and PCDH8 (silent genes) ([2]; CRC cell lines) | basal expression of the hypermethylated SFRP genes (the three other than SFRP1) ([2]; CRC cell lines, DAC treatment) | KIAA0786 expression (not basally expressed despite a lack of methylation) ([2]; SW480 cells) | expression of Group 1a genes lacking basal expression in the methylated cell lines ([2]; series of 8 CRC cell lines, incubation with DAC) |
| --- | --- | --- | --- | --- | --- | --- | --- | --- | --- |
| Nc1ncn([C@H]2C[C@H](O)[C@@H](CO)O2)c(=O)n1 [DAC, 5-aza-2′-deoxycytidine] | variable initial expression or response | minimal increase in expression | increased | vary among genes | re-expressed | re-expression | restored | reactivated | restored |
| CC(/C=C/C(=O)NO)=C\[C@@H](C)C(=O)c1ccc(N(C)C)cc1 [TSA, trichostatin A] | up-regulation | no change in expression | not | up-regulated | – | – | – | – | – |
